The values below come from ChEMBL document CHEMBL5653631, “A Potent and Selective ULK1 Inhibitor Suppresses Autophagy and Sensitizes Cancer Cells to Nutrient Stress” (iScience, 2018).

The target in test [1] is T1, Serine/threonine-protein kinase TAO1 (Homo sapiens) (UniProt Q7L7X3).
T1 sequence (whole entry): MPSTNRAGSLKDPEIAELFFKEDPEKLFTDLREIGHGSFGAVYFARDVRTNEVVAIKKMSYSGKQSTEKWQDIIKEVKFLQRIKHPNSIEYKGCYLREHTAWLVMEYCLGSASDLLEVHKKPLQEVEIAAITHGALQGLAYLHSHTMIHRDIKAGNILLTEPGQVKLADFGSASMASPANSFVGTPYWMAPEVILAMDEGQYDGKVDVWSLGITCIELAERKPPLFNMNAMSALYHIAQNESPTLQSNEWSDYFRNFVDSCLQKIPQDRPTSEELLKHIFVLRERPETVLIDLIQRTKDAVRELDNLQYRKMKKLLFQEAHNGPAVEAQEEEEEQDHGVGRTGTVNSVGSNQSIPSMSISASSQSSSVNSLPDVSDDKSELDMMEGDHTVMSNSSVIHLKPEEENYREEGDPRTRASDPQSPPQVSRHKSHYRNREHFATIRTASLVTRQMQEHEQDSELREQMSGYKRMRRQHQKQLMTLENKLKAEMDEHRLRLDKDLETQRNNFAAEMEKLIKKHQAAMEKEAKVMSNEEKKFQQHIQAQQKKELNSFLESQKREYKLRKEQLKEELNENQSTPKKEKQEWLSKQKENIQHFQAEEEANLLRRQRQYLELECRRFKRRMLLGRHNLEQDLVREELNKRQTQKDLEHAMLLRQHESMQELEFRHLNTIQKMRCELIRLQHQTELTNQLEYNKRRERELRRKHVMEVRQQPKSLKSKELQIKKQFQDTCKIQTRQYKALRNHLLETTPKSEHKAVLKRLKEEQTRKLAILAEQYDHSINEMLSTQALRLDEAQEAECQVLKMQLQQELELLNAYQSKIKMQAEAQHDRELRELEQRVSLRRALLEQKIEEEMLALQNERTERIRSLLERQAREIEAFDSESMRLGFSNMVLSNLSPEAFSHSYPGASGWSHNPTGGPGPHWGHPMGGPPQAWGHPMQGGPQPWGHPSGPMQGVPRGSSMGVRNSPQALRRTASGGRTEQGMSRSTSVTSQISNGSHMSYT
Description: Inhibition of human recombinant TAO1 at 15 nM in presence of ATP by radiometric assay relative to control.

In test [2] the target is Serine/threonine-protein kinase 35 (Homo sapiens) (UniProt Q8TDR2). As to the kind of experiment: Inhibition of human recombinant CLIK1 at 15 nM in presence of ATP by radiometric assay relative to control.
Test [3] addresses Serine/threonine-protein kinase 17A (Homo sapiens, UniProt Q9UEE5). Description: Inhibition of human recombinant DRAK1.
Test [4] has as its target T2, Ephrin type-A receptor 3 (Homo sapiens) (UniProt P29320).
T2 sequence (whole entry): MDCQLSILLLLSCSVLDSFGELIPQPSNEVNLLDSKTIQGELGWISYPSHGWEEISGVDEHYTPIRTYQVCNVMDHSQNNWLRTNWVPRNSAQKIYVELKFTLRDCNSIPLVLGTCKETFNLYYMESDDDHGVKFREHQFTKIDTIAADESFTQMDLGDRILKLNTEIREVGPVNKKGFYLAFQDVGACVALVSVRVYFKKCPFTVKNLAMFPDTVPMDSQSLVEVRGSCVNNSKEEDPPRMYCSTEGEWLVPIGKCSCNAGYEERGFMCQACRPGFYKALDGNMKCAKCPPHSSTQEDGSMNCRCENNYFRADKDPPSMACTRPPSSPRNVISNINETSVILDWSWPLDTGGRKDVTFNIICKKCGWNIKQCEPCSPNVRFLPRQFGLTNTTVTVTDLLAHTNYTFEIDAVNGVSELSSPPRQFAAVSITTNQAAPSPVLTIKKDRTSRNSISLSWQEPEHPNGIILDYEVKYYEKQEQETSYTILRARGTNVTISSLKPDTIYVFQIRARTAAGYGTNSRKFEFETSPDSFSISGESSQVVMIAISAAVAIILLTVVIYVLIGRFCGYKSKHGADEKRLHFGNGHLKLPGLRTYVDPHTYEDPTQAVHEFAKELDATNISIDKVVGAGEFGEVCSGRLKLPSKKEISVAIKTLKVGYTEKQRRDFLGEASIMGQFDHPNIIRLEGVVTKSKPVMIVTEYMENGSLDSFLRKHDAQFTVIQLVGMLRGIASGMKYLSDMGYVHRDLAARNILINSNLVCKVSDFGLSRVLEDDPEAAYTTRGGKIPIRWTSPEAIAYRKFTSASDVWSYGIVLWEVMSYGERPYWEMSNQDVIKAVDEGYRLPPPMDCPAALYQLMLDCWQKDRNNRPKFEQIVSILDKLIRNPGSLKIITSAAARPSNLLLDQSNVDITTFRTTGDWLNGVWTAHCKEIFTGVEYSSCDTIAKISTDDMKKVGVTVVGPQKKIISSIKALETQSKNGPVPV
Description: Inhibition of human recombinant EphA3 at 500 nM in presence of ATP by radiometric assay relative to control.

Test [5] concerns the target Serine/threonine-protein kinase 33 (Homo sapiens) (UniProt Q9BYT3). As to the kind of experiment: Inhibition of human recombinant STK33 at 500 nM related to control ULK1.
The target of test [6] is Mitogen-activated protein kinase 10 (Homo sapiens) (UniProt P53779). As to the kind of experiment: Inhibition of human recombinant JNK3 at 500 nM in presence of ATP by radiometric assay relative to control.
Test [7] addresses Cyclin-dependent kinase 13 (Homo sapiens) (UniProt Q14004). As to the kind of experiment: Inhibition of human recombinant CHED at 500 nM in presence of ATP by radiometric assay relative to control.

Serine/threonine-protein kinase 17A, sequence (Q9UEE5 whole entry): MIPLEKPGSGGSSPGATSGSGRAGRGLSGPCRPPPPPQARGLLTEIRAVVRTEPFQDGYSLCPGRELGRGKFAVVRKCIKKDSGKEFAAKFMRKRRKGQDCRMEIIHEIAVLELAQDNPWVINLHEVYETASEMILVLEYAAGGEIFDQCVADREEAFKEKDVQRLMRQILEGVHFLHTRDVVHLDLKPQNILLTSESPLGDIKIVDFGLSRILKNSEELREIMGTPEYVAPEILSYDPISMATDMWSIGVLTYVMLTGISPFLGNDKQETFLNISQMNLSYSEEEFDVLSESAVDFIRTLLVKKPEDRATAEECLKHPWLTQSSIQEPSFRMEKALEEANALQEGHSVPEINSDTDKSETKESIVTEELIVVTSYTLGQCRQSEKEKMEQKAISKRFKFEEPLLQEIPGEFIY
Mitogen-activated protein kinase 10 (Homo sapiens), sequence (P53779 whole entry): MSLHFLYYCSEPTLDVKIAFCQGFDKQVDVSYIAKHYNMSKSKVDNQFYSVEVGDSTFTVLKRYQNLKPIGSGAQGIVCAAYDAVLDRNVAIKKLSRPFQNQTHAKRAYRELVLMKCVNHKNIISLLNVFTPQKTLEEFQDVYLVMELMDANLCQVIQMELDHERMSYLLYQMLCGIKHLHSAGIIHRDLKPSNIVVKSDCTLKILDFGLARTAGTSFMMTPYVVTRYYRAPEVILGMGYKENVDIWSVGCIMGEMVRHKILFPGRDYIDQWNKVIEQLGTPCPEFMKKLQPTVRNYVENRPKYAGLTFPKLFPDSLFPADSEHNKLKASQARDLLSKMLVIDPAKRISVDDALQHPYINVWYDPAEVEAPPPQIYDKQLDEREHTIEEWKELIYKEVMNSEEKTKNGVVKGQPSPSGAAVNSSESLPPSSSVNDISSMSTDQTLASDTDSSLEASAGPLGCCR
Serine/threonine-protein kinase 33 (Homo sapiens), sequence (Q9BYT3 whole entry, looked up): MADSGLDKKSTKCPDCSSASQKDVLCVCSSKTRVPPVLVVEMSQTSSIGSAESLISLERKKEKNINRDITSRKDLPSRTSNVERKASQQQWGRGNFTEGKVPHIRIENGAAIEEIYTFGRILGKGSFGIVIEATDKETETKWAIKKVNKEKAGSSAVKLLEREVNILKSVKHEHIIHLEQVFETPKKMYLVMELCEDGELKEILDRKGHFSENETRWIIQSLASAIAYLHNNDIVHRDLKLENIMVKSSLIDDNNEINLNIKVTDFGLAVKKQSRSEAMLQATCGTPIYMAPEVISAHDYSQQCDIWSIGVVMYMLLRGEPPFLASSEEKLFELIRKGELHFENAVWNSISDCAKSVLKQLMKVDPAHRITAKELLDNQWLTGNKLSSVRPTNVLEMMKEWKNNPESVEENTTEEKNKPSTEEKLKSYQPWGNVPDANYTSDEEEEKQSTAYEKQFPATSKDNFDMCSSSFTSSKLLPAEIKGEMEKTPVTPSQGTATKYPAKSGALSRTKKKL
Serine/threonine-protein kinase 35 (Homo sapiens), sequence (Q8TDR2 whole entry): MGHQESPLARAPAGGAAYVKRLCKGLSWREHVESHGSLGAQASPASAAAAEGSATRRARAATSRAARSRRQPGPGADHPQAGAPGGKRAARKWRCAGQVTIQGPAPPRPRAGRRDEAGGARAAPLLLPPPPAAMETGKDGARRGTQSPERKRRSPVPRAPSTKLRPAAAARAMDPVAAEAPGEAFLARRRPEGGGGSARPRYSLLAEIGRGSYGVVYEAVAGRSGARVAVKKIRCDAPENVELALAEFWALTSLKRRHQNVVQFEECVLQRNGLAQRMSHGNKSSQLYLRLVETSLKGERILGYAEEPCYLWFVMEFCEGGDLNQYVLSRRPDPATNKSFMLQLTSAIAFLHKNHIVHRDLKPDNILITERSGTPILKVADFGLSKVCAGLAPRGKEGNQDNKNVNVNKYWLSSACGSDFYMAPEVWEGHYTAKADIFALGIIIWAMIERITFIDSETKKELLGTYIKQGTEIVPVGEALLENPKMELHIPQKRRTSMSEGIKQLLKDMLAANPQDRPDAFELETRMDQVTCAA
Cyclin-dependent kinase 13 (Homo sapiens), sequence (Q14004 whole entry, looked up): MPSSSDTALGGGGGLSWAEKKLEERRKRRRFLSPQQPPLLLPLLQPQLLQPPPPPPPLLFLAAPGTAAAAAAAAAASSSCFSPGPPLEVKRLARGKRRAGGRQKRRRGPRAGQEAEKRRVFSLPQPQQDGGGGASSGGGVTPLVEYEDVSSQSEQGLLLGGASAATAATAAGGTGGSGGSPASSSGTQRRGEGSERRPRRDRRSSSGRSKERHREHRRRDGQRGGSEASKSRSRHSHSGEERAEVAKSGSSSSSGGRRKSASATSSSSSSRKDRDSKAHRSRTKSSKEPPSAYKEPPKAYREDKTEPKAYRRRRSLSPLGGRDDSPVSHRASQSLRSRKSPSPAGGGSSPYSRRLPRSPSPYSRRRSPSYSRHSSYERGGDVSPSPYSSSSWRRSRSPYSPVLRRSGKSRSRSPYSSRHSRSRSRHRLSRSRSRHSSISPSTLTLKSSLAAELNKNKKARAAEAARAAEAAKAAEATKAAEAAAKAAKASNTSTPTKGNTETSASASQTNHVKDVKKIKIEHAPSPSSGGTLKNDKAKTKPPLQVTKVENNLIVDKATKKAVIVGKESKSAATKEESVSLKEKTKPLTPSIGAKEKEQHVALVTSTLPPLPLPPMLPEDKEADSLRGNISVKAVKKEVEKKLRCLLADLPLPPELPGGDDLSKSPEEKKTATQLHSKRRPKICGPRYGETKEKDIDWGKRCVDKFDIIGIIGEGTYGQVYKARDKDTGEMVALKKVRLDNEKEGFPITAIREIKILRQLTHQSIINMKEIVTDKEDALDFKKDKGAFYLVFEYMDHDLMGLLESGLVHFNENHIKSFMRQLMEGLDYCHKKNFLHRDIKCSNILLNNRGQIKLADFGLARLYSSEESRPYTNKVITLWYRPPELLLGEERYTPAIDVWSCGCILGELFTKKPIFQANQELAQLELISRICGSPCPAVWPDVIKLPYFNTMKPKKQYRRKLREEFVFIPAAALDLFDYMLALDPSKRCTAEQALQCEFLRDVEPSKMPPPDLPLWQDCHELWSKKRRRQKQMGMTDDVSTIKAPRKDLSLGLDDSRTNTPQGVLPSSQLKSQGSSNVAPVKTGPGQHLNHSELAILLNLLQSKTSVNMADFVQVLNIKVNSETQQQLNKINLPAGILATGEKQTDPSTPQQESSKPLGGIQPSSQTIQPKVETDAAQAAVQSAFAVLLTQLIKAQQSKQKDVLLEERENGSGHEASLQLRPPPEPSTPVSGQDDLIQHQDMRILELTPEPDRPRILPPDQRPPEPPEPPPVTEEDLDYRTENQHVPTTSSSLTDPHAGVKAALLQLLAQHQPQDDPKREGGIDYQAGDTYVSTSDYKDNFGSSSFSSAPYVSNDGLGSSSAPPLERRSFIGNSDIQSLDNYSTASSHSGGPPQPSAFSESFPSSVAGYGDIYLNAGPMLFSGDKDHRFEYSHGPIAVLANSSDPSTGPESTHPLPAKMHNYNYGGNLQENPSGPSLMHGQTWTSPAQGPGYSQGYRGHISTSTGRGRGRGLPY

A word on the inhibition: it is the percentage by which the read-out fell short of the control. With `CC(C)[C@H](NC(=O)c1cc(-c2cnn3cc(-c4ccc(OCCN5CCCCC5)cc4)cnc23)cs1)C(F)(F)F`, the figures for the inhibition in test [1] and in test [2] were 0% and 9%, respectively.
As a reminder, the IC50 is the concentration that inhibits the measured activity by half. Turning to `O=C(N[C@@H](C1CC1)C(F)(F)F)c1cc(-c2cnn3cc(-c4ccc(F)cc4)cnc23)cs1`, the IC50 in test [3] was 14 nM.
Consider `CNC(=O)c1ccccc1Oc1nc(Nc2cc(OC)c(OC)c(OC)c2)ncc1Br`, for which the inhibition in test [4] was found to be 11%; in test [6] it was 3%; in test [7], 0%. Moreover, the fold change (FC) in test [5] is 0.05.
